Source: patent US6187810A, “Macrocyclic compounds made from suboxide units” (Donatur Dr. Kerek GmbH, priority 1996, dated 2001)
Read-outs that look alike come from different tables or passages of the source.

Key:
[1] = Acute toxicity of cardiac glycosides applied together with the active substances; type: in vivo
Description: Furthermore, as was experimentally established, the active substances according to the invention are capable to control the activity of several other essential enzymes, for example collegenases, hyaluronidases, phosphokinases and other enzymes. According to all indications, the active substances according to the invention are useable as endogenous ligands of the Na^+,K^+ -ATPase enzyme.

hemoglobin = settings: cited from earlier work
mice = settings: cited from earlier work; for toxicity in words (blood toxin, irritation): mouse, in vivo

C[C@@H]1O[C@@H](O[C@H]2C[C@@H](O)[C@]3(CO)[C@H]4[C@H](O)C[C@]5(C)[C@@H](C6=CC(=O)OC6)CC[C@]5(O)[C@@H]4CC[C@]3(O)C2)[C@H](O)[C@H](O)[C@H]1O [ouabain]
toxic side-effects of cardiac glycoside ([1]; active substances applied together with the glycoside): reduction of the toxic side-effects

O=C=C=C=O [C3 O2, carbon suboxide]
binding to hemoglobin (hemoglobin): irreversibly binds hemoglobin
tolerability limit in mice (mice; C3 O2 in dry air): 0.2-0.4%
toxicity in words (blood toxin, irritation) (mice): irritating to mucus membranes
toxicity in words (blood toxin, irritation) (mice; listed as Carbon suboxide): relatively strong blood toxin

C[C@@H]1O[C@@H](O[C@H]2CC[C@]3(C=O)[C@H]4CC[C@]5(C)[C@@H](c6ccc(=O)oc6)CC[C@]5(O)[C@@H]4CC[C@]3(O)C2)[C@H](O)[C@H](O)[C@H]1O[C@@H]1O[C@H](CO)[C@@H](O)[C@H](O)[C@H]1O [hellebrin]
LD50 ([1]; with active substances at molar ratio 0.02 to 2/1 mol glycoside, preferably 1:1): considerably higher
